Measurements published in patent publication US10000469B2, “Heat shock protein 70 (hsp-70) receptor ligands” (Duke University, priority 2014, dated 2018).

What was measured:
Her2 and Akt = assay: Degradation assay (Western blot of client proteins); format: cell-based
Protocol: Western Blotting: SDS-PAGE was carried out using Criterion™ Cell system using pre-casted 4-20% or 4-15% Criterion™ Tris-HCl gels (BioRad, Hercules, Calif.). For Western blotting gels were run at 200V for 1 hour using the PowerPac basic power supply (BioRad, Hercules, Calif.). Next, gels were transferred to nitrocellulose for blotting at 100V for 1 hour (Fisher Scientific, Waltham, Mass.). Nitrocellulose membranes were blocked with 5% dry non-fat milk in phosphate-buffered saline (PBS) with 0.01% Tween-20 for 1 hour at room temperature. Membranes were incubated with primary antibodies (1:1000 dilution) overnight at 4° C. The next day membranes were washed 3× in PBS-Tween, incubated for 1 hour at room temperature with secondary antibodies, and further washed 3× in PBS-Tween. ECL Plus Western blotting reagent (Pierce Biotechnology, Rockford, Ill.) was used to detect antibodies. GFP, Her2, Akt, Hsp70, Hsc70, Grp78, Grp75, and Hsp90 primary antibodies and all associated secondary antibodies were purchased from Cell Signaling Technology (Danvers, Mass.).
Degradation Assay: The specified cells were seeded overnight and then treated with the indicated concentration of compound for 24 hours. The cells were then harvested and subjected to analysis by Western blot.

SkBr3 = assay: Cell proliferation, SkBr3; format: cell-based; details: SkBr3
Protocol: Cell Proliferation: Cell proliferation was determined using a Hoechst stain (Sigma, St. Louis, Mo.) to quantify DNA. 5,000 cells of the designated cell line were plated in 96 well plates and treated the next day, designated as time point 0, with the indicated concentration of the specified compound maintained for the duration of the assay. At the indicated time points the media was removed and plated frozen at −80° C. Double distilled H2O was then added and the plates were incubated at 37° C. for 1 hour. After 1 hour the plates were frozen at −80° C. After freezing the plates were thawed and Hoechst stain was diluted 1:1000 in THE buffer (10 mM Tris, 2M NaCl, 1 mM Na2EDTA). The final fluorescence was measured on the Victor X2 plate reader at 355/460 nm, and cell proliferation was determined with the formula: % Cell Proliferation=100×(Sample fluorescence−background fluorescence)/(Control fluorescence−background fluorescence).

HS-72 in vivo MTD = details: wild-type mice, IP biweekly for 35 days, up to 30 mg/kg
Protocol: HS-72 in vivo MTD and blood workup: The 5 cohorts consisted of 3 mice each given HS-72 BiW and administered IP in DMSO at 1, 5, 10, 20 and 30 mpk using female FVBs aged to 10 weeks. Body Mass was measured weekly and the mice were monitored for signs of toxicity as per MP1U standard protocol. For blood analysis, 4 mice were injected IP with HS-72 on day 1 and 4, with blood drawn on day 5. 4 mice receiving no treatment were used as controls.

Hsp70i = Hsp70i (Homo sapiens, UniProt P0DMV8); assay: Thermofluor assay, purified Hsp70i; format: binding; design: Full length Hsp70 (black arrow) and tryptic fragments (blue arrows); His tag (cleaved yes); made in house; details: for decrease of ATP bound Hsp70i Tm: in presence of ATP; for decrease of the Tm of Hsp70i: no nucleotide
Protocol: Protein Purification: Plasmids were provided for human HSPA1A, HSPA8, and HSPA1A C306D. Plasmids were transformed in Rosetta competent cells and single colonies were picked from streaked LB/ampicillin/chloramphenicol plates. Cultures were grown at 37° C. for 4-6 hours, were cooled to 15° C. and expression was induced overnight with 200 uM isopropyl 1-thio-β-D-galactopyranoside. Cells were pelleted and resuspended in Ni-lysis buffer (50 mM Na2HPO4, 300 mM NaCl, 10 mM Imidazole, 0.05% Tween-20) supplemented with Complete Mini protease inhibitor tablets (Roche, Mannheim, Germany) and […], and then sonicated. The cells were again pelleted and the supernatant was incubated with complete His-Tag purification resin (Roche, Mannheim, Germany) for 5 hours at 4° C. The resin was washed with Ni-wash buffer (50 mM Na2HPO4, 300 mM NaCl, 20 mM Imidazole, 0.05% Tween-20) and eluted with Ni-elution buffer (50 mM Na2HPO4, 300 mM NaCl, 250 mM Imidazole, 0.05% Tween-20). The elution was then incubated with tobacco etch virus protease overnight at 4° C. The following day the elution was incubated with the γ-phosphate ATP sepharose resin for 30 minutes at 4° C. Next the resin was washed with ATP-wash buffer (50 mMTris-HCl, 60 mM MgCl2, 60 mM KCl, 10 mM Citrate) supplemented with 1 mM DTT and then ATP-wash buffer supplemented with 2 mM ATP was added to the resin to elute the protein. The final elutions were concentrated in Amicon Ultra-15 Centrifugal Filter Units (EMD Millipore, Billerica, Mass.) and buffer exchanged into 25 mM HEPES, 5 mM MgCl2, 10 mM KCl (pH 7.5) and stored at −80° C. until use.
Thermofluor Assay: SYPRO orange (Molecular Probes, Eugene, Oreg.) was diluted 1:1000 in 25 mM HEPES, 5 mM MgCl2, 10 mM KCl (pH 7.5) and purified Hsp70i, Hsc70, Hsp70i C306, or Hsp90, was then added to a final dilution of 0.04 mg/ml. Where indicated 0.001% or 0.01% Triton X-100 (Sigma) was also added. The indicated compound or DMSO was then added at the specified concentration and each sample was added as 5 replicates to a 384 well plate (BioRad, Hercules, Calif.). A melt curve protocol (25° C. to 90° C., increasing 0.5° C. and a plate reading every 30 seconds) was run on a CFX384 Touch™ Real-Time PCR Detection System (BioRad). To determine the midpoint of the protein unfolding transition or Tm, GraphPad Prisim4 (La Jolla, Calif.) was used to normalize the melt curve and to calculate the first derivate of the melt curve, with the steepest point of the slope being the Tm.

[1] = HS-72 in combination with HS-10

Chain of Hsp70i (P0DMV8 whole entry, the tested form may be a part): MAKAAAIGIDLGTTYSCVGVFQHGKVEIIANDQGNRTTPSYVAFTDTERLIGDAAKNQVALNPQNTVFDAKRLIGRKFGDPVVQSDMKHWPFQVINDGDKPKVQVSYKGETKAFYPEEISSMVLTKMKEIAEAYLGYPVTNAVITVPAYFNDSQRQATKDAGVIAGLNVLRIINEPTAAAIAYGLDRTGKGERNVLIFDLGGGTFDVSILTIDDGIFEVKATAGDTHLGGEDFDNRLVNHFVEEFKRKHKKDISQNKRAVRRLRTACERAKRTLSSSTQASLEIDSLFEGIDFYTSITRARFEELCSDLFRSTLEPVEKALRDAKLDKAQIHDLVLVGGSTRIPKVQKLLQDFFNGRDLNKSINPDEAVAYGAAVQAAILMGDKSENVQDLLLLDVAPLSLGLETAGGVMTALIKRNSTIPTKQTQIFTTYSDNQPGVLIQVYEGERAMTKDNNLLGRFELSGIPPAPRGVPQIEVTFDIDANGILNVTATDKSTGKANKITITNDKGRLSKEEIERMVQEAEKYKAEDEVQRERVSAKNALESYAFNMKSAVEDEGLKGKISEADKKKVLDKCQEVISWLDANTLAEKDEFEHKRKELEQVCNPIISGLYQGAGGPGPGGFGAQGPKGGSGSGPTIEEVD

CCCn1c(NC(=O)[C@H]2CCCN(c3cnccn3)C2)nc2ccccc21 [HS-72, (S)—N-(1-propyl-1H-benzo[d]imidazol-2-yl)-1-(pyrazin-2-yl)piperidine-3-carboxamide]
Akt degradation (Her2 and Akt; [1]): significant Akt degradation
levels of Her2 (Her2 and Akt; [1]): completely abolished
Akt and Her2 expression (Her2 and Akt; compound alone, BT474 breast cancer cells): dose dependent reduction
cell proliferation (SkBr3): inhibits proliferation
cell proliferation, combination with HS-10 (SkBr3): additive effect
cell proliferation, combination with HS-10 (SkBr3; listed as HS72): synergism
tolerability in dose escalation (HS-72 in vivo MTD): no adverse events, reduction in body weight, or altered behavior
decrease of ATP bound Hsp70i Tm (Hsp70i; 10 uM): 0.5 °C
decrease of the Tm of Hsp70i (Hsp70i; 10 uM): 0.1 °C
decrease of ATP bound Hsp70i Tm (Hsp70i; 100 uM): 1 °C
decrease of the Tm of Hsp70i (Hsp70i; 100 uM): 0.5 °C
Tm of Hsp70 with compound alone vs. compound plus detergent (Hsp70i; 100 uM, 0.001% or 0.01% Triton): no difference
effect on Hsp70i Tm in combination with PES (Hsp70i; absence or presence of ATP): no synergistic or additive effect
effect on Hsp70i Tm in combination with VER (Hsp70i; absence or presence of ATP): no observed synergistic or additive effect
effect on Tm of Hsp70i (Hsp70i; compound alone): decreased in a dose dependent manner
effect on Tm of ADP Hsp70i (Hsp70i; in presence of ADP): does not change
